Experimental findings from PMC10303221, “Synthesis, In Silico Studies, and Antioxidant and Tyrosinase Inhibitory Potential of 2-(Substituted Phenyl) Thiazolidine-4-Carboxamide Derivatives” (Pharmaceuticals, 2023) are described below.

A short description of series [1]: DPPH free radical scavenging assay (antioxidant activity). As to conditions: mean ± SD, triplicate; 30 min at 37 °C, absorbance 517 nm. The text has this:
The 2,2-Diphenyl-1-picrylhydrazyl (DPPH) radical was used to evaluate the antioxidant potential of the synthesized compounds. Different concentrations of the samples were employed in the subject assay. […] The principle of this assay is related to the conversion of the purple-colored free radical into the pale-yellow-colored reduced form, owing to the action of a proton donating or antioxidant agent. […] Alternatively, compound 1d also acquired hydroxy groups on both mentioned positions. These groups are categorized as strong proton donors which tend to participate in the reduction in DPPH free radicals by donating protons.
The synthesized compounds were evaluated for their antioxidant activity by measuring their ability to scavenge DPPH free radicals. A previously described protocol was followed for this purpose. An amount of 20 µL of each of the four different dilutions of test samples (200, 66.66, 22.22, and 7.41 µg/mL) was added to 96-well plates containing 180 µL of DPPH solution. The absorbance at 517 nm was determined after incubating for 30 min at 37 °C. Ascorbic acid (1 mg/mL DMSO) was used as the positive control, and the assay was performed in triplicate. The IC50 values were also calculated using the % of inhibitions at different concentrations using Table Curve 2D Windows version 4.07.
(In general: Loss of DPPH colour is used to gauge radical scavenging.)

Another series concerns the target mushroom tyrosinase (Agaricus bisporus, UniProt C7FF04). Description: Mushroom tyrosinase inhibitory assay (L-DOPA substrate, dopachrome absorbance at 492 nm). Type of series: biochemical. As to conditions: compared with kojic acid. On the procedure: An evaluation of the inhibitory effect on the tyrosinase enzyme was conducted on mushroom tyrosinase.
A tyrosinase inhibitory assay was conducted with the mushroom tyrosinase enzyme. An amount of 20 µL of mushroom tyrosinase (30 U/mL) was combined with 140 µL (20 mM, pH 6.8) of phosphate buffer. An amount of 20 µL of inhibitor solution was added to a 96-well microplate. Then pre-incubation at room temperature was conducted for 10 min. A solution of L-DOPA (20 μL—0.85 mM) was added. This was followed by the incubation of the plate for 20 min at 25 °C. Using a microplate reader (OPTIMax, Tunable), the absorbance of dopa-chrome was recorded at 492 nm.
The absorbance of dopa-chrome was measured at 492 nm using a microplate reader (OPTIMax, Tunable, San Jose, CA, USA). […] The IC50 values were used to express the extent of inhibition. The experiments were performed in triplicate for each concentration.

Structures are written as SMILES. In brackets after ≈: the same amount, converted by molar mass.

Sequence of mushroom tyrosinase (C7FF04 2-392): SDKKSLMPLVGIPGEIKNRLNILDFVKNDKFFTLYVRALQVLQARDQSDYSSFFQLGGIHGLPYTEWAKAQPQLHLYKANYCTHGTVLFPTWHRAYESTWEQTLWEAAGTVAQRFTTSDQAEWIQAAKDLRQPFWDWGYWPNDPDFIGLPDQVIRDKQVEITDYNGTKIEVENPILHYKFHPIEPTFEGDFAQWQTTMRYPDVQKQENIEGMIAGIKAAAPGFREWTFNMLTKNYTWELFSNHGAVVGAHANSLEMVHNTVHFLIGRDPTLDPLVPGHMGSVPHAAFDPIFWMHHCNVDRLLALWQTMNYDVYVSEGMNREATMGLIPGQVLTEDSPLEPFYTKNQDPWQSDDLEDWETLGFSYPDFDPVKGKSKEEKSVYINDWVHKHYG

On to `O=C(O)c1ccc(NC(=O)C2CSC(c3ccccc3O)N2)cc1` (stereo not drawn) [Compound 1a, 4-[2-(2-Hydroxyphenyl)-1,3-thiazolidine-4-carbonyl]-aminobenzoic Acid], for which the melting point (as a rule, the temperature, or range, at which the solid turns liquid) is 135 to 136 °C. Same read-out and setting: with `O=C(C1CSC(c2ccccc2O)N1)N1CCOCC1` (stereo not drawn) [Compound 1b, [2-(2-Hydroxyphenyl)-1,3-thiazolidin-4-yl](morpholin-4-yl)-methanone] the figure was 128 to 129 °C; with `O=C(Nc1ccc(O)cc1)C1CSC(c2ccccc2O)N1` (stereo not drawn) [Compound 1c, 2-(2-Hydroxyphenyl)-N-(4-hydroxyphenyl)-1,3-thiazolidine-4-carboxamide], 109 to 111 °C.

Consider `O=C(O)c1ccc(NC(=O)C2CSC(c3ccccc3O)N2)cc1O` (stereo not drawn) [Compound 1d, 2-Hydroxy-4-[2-(2-hydroxyphenyl)-1,3-thiazolidine-4-carbonyl]-aminobenzoic Acid], for which the melting point lay in the range of 134 to 135 °C. For the same compound, in series [1], the “IC50 in the DPPH free radical scavenging assay” value turned out to be 18.27 ± 1.1 µg/mL (≈ 50.7 µM). In turn, `COc1ccc(NC(=O)C2CSC(c3ccccc3O)N2)cc1` (stereo not drawn) [Compound 1e, 2-(2-Hydroxyphenyl)-N-(4-methoxyphenyl)-1,3-thiazolidine-4-carboxamide] displayed a melting point of 83 to 84 °C. `COc1ccccc1C1NC(C(=O)Nc2ccc(C(=O)O)cc2)CS1` (stereo not drawn) [Compound 2a, 4-[2-(2-Methoxyphenyl)-1,3-thiazolidine-4-carbonyl]-aminobenzoic Acid] gave a melting point of 116 to 117 °C. The “Tyrosinase inhibitory activity, in words” value on mushroom tyrosinase is “moderate activity”. Compound `COc1ccccc1C1NC(C(=O)Nc2ccc(C(=O)O)c(O)c2)CS1` (stereo not drawn) [Compound 2d, 2-Hydroxy-4-[2-(2-methoxyphenyl)-1,3-thiazolidine-4-carbonyl]-aminobenzoic Acid] displayed a melting point of 112 to 113 °C. The “IC50 in the DPPH free radical scavenging assay” value in series [1] stood at 18.17 ± 1.0 µg/mL (≈ 48.5 µM). On mushroom tyrosinase, the “Tyrosinase inhibitory activity, in words” value is recorded as “moderate activity”. The compound `O=C(O)c1ccc(NC(=O)C2CSC(c3ccc(O)cc3)N2)cc1` (stereo not drawn) [Compound 3a, 4-[2-(4-Hydroxyphenyl)-1,3-thiazolidine-4-carbonyl]-aminobenzoic Acid] came in with a melting point of 164 to 166 °C. The same measure, in the same setting: as for `O=C(Nc1ccc(O)cc1)C1CSC(c2ccc(O)cc2)N1` (stereo not drawn) [Compound 3c, N,2-Bis(4-hydroxyphenyl)-1,3-thiazolidine-4-carboxamide], the figure is 174 to 176 °C; as for `O=C(O)c1ccc(NC(=O)C2CSC(c3ccc(O)cc3)N2)cc1O` (stereo not drawn) [Compound 3d, 2-Hydroxy-4-[2-(4-hydroxyphenyl)-1,3-thiazolidine-4-carbonyl]-aminobenzoic Acid], 130 to 131 °C. `COc1ccc(NC(=O)C2CSC(c3ccc(O)cc3)N2)cc1` (stereo not drawn) [Compound 3e, 2-(4-Hydroxyphenyl)-N-(4-methoxyphenyl)-1,3-thiazolidine-4-carboxamide] yielded a melting point of 115 to 117 °C. Moreover, the “Tyrosinase inhibitory activity, in words” value on mushroom tyrosinase was “moderate activity”. The compound `COc1ccc(C2NC(C(=O)Nc3ccc(C(=O)O)cc3)CS2)cc1` (stereo not drawn) [Compound 4a, 4-[2-(4-Methoxyphenyl)-1,3-thiazolidine-4-carbonyl]-aminobenzoic Acid] gave a melting point of 94 to 95 °C. Regarding `COc1ccc(C2NC(C(=O)Nc3ccc(C(=O)O)c(O)c3)CS2)cc1` (stereo not drawn) [Compound 4d, 2-Hydroxy-4-[2-(4-methoxyphenyl)-1,3-thiazolidine-4-carbonyl]-aminobenzoic Acid], the melting point was 109 to 110 °C. Regarding `COc1ccc(NC(=O)C2CSC(c3ccc(OC)cc3)N2)cc1` (stereo not drawn) [Compound 4e, N,2-Bis(4-methoxyphenyl)-1,3-thiazolidine-4-carboxamide], the melting point is 129 to 131 °C. On mushroom tyrosinase, the “Tyrosinase inhibitory activity, in words” value is “moderate activity”.

For the compound `O=C1O[C@H]([C@@H](O)CO)C(O)=C1O` [ascorbic acid, reference compound], in series [1], the “IC50 in the DPPH free radical scavenging assay” value amounted to 7.83 ± 0.5 µg/mL (≈ 44.5 µM).
